Target: PI3Kβ (Homo sapiens (Human), UniProt P42338)
Experiment: TR-FRET enzymatic activity assay, PI3Kβ
Format: biochemical
Details: 2× Km ATP, 2 μM PIP2, 30 minutes at 25° C., read-out: IC50-PIP-Beta
Experimental: The compounds of formula (I) were characterized for their enzymatic activity against the PI3K isoforms. The activities were measured using a time-resolved fluorescence resonance energy transfer (TR-FRET) assay. TR-FRET monitored the formation of 3,4,5-inositol triphosphate molecule that competed with fluorescently labeled PIPS for binding to the GRP-1 pleckstrin homology domain protein.
Class I PI3K isoforms were expressed and purified as heterodimeric recombinant proteins. All assay reagents and buffers for the TR-FRET assay were purchased from Millipore. […] The compounds were added to the assay solution and incubated for 30 minutes at 25° C.

Sequence of PI3Kβ (P42338 whole entry): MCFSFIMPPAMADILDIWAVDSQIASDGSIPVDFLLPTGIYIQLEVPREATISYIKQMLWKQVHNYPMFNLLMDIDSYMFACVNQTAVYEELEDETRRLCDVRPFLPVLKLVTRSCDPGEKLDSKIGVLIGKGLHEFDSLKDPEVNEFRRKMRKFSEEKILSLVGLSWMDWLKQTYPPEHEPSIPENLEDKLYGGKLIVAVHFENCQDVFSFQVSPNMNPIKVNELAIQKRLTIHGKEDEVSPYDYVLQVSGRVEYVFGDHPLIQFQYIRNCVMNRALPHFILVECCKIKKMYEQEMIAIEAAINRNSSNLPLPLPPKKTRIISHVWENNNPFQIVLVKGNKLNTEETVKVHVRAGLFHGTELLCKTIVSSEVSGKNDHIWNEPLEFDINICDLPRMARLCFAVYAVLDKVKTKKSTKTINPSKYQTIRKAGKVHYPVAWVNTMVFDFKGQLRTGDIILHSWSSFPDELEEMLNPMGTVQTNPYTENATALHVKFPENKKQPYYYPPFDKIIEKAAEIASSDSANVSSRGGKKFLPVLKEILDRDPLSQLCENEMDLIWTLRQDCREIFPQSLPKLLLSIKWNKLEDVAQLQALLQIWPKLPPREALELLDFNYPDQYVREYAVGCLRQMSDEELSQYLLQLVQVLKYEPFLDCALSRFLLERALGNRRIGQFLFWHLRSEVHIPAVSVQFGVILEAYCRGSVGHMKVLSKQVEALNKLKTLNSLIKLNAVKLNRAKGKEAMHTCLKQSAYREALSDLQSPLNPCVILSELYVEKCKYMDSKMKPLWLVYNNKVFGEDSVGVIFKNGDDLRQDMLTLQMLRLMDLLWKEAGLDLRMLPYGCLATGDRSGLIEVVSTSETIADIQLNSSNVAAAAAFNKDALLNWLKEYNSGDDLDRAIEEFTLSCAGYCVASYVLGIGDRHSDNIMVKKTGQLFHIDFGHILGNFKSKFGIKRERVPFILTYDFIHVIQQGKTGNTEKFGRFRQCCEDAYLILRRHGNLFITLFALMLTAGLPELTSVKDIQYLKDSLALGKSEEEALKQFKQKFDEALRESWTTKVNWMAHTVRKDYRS
Sequence of PI3Kβ (P27986 whole entry partner): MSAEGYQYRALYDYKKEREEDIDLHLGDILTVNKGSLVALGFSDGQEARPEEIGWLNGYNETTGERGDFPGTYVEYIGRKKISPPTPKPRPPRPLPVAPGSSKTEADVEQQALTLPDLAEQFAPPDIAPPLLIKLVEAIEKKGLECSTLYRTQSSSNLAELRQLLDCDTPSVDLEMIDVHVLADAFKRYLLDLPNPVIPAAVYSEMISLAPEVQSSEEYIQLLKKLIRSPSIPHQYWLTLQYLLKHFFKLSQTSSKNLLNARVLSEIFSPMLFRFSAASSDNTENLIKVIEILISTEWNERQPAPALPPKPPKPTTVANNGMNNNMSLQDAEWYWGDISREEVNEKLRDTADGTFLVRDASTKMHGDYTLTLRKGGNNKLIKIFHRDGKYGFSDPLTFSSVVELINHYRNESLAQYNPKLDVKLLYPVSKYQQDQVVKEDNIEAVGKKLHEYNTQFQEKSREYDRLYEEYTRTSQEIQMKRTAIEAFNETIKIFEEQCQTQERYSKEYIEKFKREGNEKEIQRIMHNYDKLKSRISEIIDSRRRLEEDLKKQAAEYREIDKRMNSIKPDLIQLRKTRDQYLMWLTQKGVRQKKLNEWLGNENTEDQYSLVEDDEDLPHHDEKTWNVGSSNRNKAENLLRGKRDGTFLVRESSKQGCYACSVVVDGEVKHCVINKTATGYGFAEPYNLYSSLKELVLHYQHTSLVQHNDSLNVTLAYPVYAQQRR

## Cc1nc2c(-c3nnc[nH]3)cc(-c3ccncc3)cc2n1-c1ccnc2c(F)ccc(F)c12 [Example 28, 5,8-difluoro-4-[2-methyl-6-pyridin-4-yl-4-(4H-1,2,4-triazol-3-yl)benzimidazol-1-yl]quinoline]
  IC50: 0.006 µM

## Cc1nc2c(-c3nnc[nH]3)cc(-c3ccncc3)cc2n1-c1ccnc2c(Cl)ccc(Cl)c12 [Example 29, 5,8-dichloro-4-[2-methyl-6-pyridin-4-yl-4-(4H-1,2,4-triazol-3-yl)benzimidazol-1-yl]quinoline]
  IC50: 0.006 µM

## Cc1nc2c(-c3nnc[nH]3)cc(-c3ccncc3)cc2n1-c1ccnc2cccc(F)c12 [Example 30, 5-fluoro-4-[2-methyl-6-pyridin-4-yl-4-(4H-1,2,4-triazol-3-yl)benzimidazol-1-yl]quinoline]
  IC50: 0.008 µM

## Cc1cccc2nccc(-n3c(C)nc4c(-c5nnc[nH]5)cc(-c5ccncc5)cc43)c12 [Example 31, 5-methyl-4-[2-methyl-6-pyridin-4-yl-4-(4H-1,2,4-triazol-3-yl)benzimidazol-1-yl]quinoline]
  IC50: 0.089 µM

## Cc1cc(-n2c(C)nc3c(-c4nnc[nH]4)cc(-c4ccncc4)cc32)c2cccc(Cl)c2n1 [Example 32, 8-chloro-2-methyl-4-[2-methyl-6-pyridin-4-yl-4-(4H-1,2,4-triazol-3-yl)benzimidazol-1-yl]quinoline]
  IC50: 0.006 µM

## Cc1nnc(-c2cc(-c3ccncc3)cc3c2nc(C)n3-c2ccnc3c(F)ccc(F)c23)[nH]1 [Example 33, 5,8-difluoro-4-[2-methyl-4-(5-methyl-4H-1,2,4-triazol-3-yl)-6-pyridin-4-ylbenzimidazol-1-yl]quinoline]
  IC50: 0.11 µM

## Cc1cc(-n2c(C)nc3c(-c4nnc[nH]4)cc(-c4ccncc4)cc32)c2ccccc2n1 [Example 34, 2-methyl-4-[2-methyl-6-pyridin-4-yl-4-(4H-1,2,4-triazol-3-yl)benzimidazol-1-yl]quinoline]
  IC50: 0.026 µM

## Cc1nnc(-c2cc(-c3ccncc3)cc3c2nc(C)n3-c2ccnc3c(Cl)cccc23)[nH]1 [Example 35, 8-chloro-4-[2-methyl-4-(5-methyl-4H-1,2,4-triazol-3-yl)-6-pyridin-4-ylbenzimidazol-1-yl]quinoline]
  IC50: 0.022 µM

## Clc1cccc2c(-n3c(C4COC4)nc4c(-c5nnc[nH]5)cc(-c5ccncc5)cc43)ccnc12 [Example 36, 8-chloro-4-[2-(oxetan-3-yl)-6-pyridin-4-yl-4-(4H-1,2,4-triazol-3-yl)benzimidazol-1-yl]quinoline]
  IC50: 0.25 µM

## Cc1nc2c(-c3nnc[nH]3)cc(-c3ccncc3)cc2n1-c1ccnc2c(Cl)ccc(F)c12 [Example 37, 8-chloro-5-fluoro-4-[2-methyl-6-pyridin-4-yl-4-(4H-1,2,4-triazol-3-yl)benzimidazol-1-yl]quinoline]
  IC50: 0.004 µM

## Cc1nc2c(-c3nnc[nH]3)cc(-c3ccncc3)cc2n1-c1ccnc2c(Cl)cccc12 [Example 38, 8-chloro-4-[2-methyl-6-pyridin-4-yl-4-(4H-1,2,4-triazol-3-yl)benzimidazol-1-yl]quinoline]
  IC50: 0.007 µM

## Cc1nc2c(-c3nnc[nH]3)cc(-c3ccncc3F)cc2n1-c1ccnc2c(Cl)cccc12 [Example 39, 8-chloro-4-[6-(3-fluoropyridin-4-yl)-2-methyl-4-(4H-1,2,4-triazol-3-yl)benzimidazol-1-yl]quinoline]
  IC50: 0.005 µM

## Cc1nc2c(-c3nnc[nH]3)cc(-c3cc(F)ncc3F)cc2n1-c1ccnc2c(F)ccc(F)c12 [Example 41, 4-[6-(2,5-difluoropyridin-4-yl)-2-methyl-4-(4H-1,2,4-triazol-3-yl)benzimidazol-1-yl]-5,8-difluoroquinoline]
  IC50: 0.027 µM

## Cc1nc2c(-c3nnc[nH]3)cc(-c3ccnc(F)c3F)cc2n1-c1ccnc2c(F)ccc(F)c12 [Example 42, 4-[6-(2,3-difluoropyridin-4-yl)-2-methyl-4-(4H-1,2,4-triazol-3-yl)benzimidazol-1-yl]-5,8-difluoroquinoline]
  IC50: 0.01 µM

## Cc1nc2c(-c3nnc[nH]3)cc(-c3ccnc(C(F)F)c3)cc2n1-c1ccnc2c(F)ccc(F)c12 [Example 43, 4-(6-(2-(difluoromethyl)pyridin-4-yl)-2-methyl-4-(4H-1,2,4-triazol-3-yl)-1H-benzo[d]imidazol-1-yl)-5,8-difluoroquinoline]
  IC50: 0.03 µM

## Cc1nc2c(-c3nnc[nH]3)cc(-c3ccnc(C#N)c3)cc2n1-c1ccnc2c(F)ccc(F)c12 [Example 44, 4-[3-(5,8-difluoroquinolin-4-yl)-2-methyl-7-(4H-1,2,4-triazol-3-yl)benzimidazol-5-yl]pyridine-2-carbonitrile]
  IC50: 0.004 µM

## Cc1cc(-c2cc(-c3nnc[nH]3)c3nc(C)n(-c4ccnc5c(F)ccc(F)c45)c3c2)ccn1 [Example 45, 5,8-difluoro-4-[2-methyl-6-(2-methylpyridin-4-yl)-4-(4H-1,2,4-triazol-3-yl)benzimidazol-1-yl]quinoline]
  IC50: 0.008 µM

## Cc1c(-c2cc(-c3nnc[nH]3)c3nc(C)n(-c4ccnc5c(F)ccc(F)c45)c3c2)ccnc1F [Example 46, 5,8-difluoro-4-[6-(2-fluoro-3-methylpyridin-4-yl)-2-methyl-4-(4H-1,2,4-triazol-3-yl)benzimidazol-1-yl]quinoline]
  IC50: 1.1 µM

## Fc1nccc(-c2cc(-c3nnc[nH]3)c3ncn(-c4ccnc5c(F)ccc(F)c45)c3c2)c1F [Example 47, 4-[6-(2,3-difluoropyridin-4-yl)-4-(4H-1,2,4-triazol-3-yl)benzimidazol-1-yl]-5,8-difluoroquinoline]
  IC50: 0.046 µM

## Cc1nc2c(-c3nnc[nH]3)cc(-c3ccnc(N)c3)cc2n1-c1ccnc2c(F)ccc(F)c12 [Example 48, 4-[3-(5,8-difluoroquinolin-4-yl)-2-methyl-7-(4H-1,2,4-triazol-3-yl)benzimidazol-5-yl]pyridin-2-amine]
  IC50: 0.01 µM

## Cc1nnc(-c2cc(-c3ccnc(N)c3)cc3c2nc(C)n3-c2ccnc3c(Cl)cccc23)[nH]1 [Example 49, 4-[3-(8-chloroquinolin-4-yl)-2-methyl-7-(5-methyl-4H-1,2,4-triazol-3-yl)benzimidazol-5-yl]pyridin-2-amine]
  IC50: 0.17 µM

## Cc1nnc(-c2cc(-c3ccnc(N)c3)cc3c2nc(C)n3-c2ccnc3c(Cl)ccc(F)c23)[nH]1 [Example 50, 4-[3-(8-chloro-5-fluoroquinolin-4-yl)-2-methyl-7-(5-methyl-4H-1,2,4-triazol-3-yl)benzimidazol-5-yl]pyridin-2-amine]
  IC50: 0.017 µM

## Cc1nc2c(-c3nnc[nH]3)cc(-c3ccnc(N)c3)cc2n1-c1ccnc2c(Cl)ccc(F)c12 [Example 51, 4-[3-(8-chloro-5-fluoroquinolin-4-yl)-2-methyl-7-(4H-1,2,4-triazol-3-yl)benzimidazol-5-yl]pyridin-2-amine]
  IC50: 0.003 µM

## CCc1nc2c(-c3nnc[nH]3)cc(-c3ccnc(N)c3)cc2n1-c1ccnc2cc(F)ccc12 [Example 52, 4-[2-ethyl-3-(7-fluoroquinolin-4-yl)-7-(4H-1,2,4-triazol-3-yl)benzimidazol-5-yl]pyridin-2-amine]
  IC50: 0.33 µM

## Cc1nc2c(-c3nnc[nH]3)cc(-c3ccnc(N)c3)cc2n1-c1ccnc2cc(F)ccc12 [Example 53, 4-[3-(7-fluoroquinolin-4-yl)-2-methyl-7-(4H-1,2,4-triazol-3-yl)benzimidazol-5-yl]pyridin-2-amine]
  IC50: 0.18 µM

## CCc1nc2c(-c3nnc[nH]3)cc(-c3ccnc(N)c3)cc2n1-c1ccnc2cccc(F)c12 [Example 54, 4-[2-ethyl-3-(5-fluoroquinolin-4-yl)-7-(4H-1,2,4-triazol-3-yl)benzimidazol-5-yl]pyridin-2-amine]
  IC50: 0.036 µM

## Cc1nc2c(-c3nnc[nH]3)cc(-c3ccnc(N)c3)cc2n1-c1ccnc2cccc(F)c12 [Example 55, 4-[3-(5-fluoroquinolin-4-yl)-2-methyl-7-(4H-1,2,4-triazol-3-yl)benzimidazol-5-yl]pyridin-2-amine]
  IC50: 0.019 µM

## Cc1nc2c(-c3nnc[nH]3)cc(-c3ccnc(N)n3)cc2n1-c1ccnc2c(Cl)cccc12 [Example 56, 4-[3-(8-chloroquinolin-4-yl)-2-methyl-7-(4H-1,2,4-triazol-3-yl)benzimidazol-5-yl]pyrimidin-2-amine]
  IC50: 0.009 µM

## Cc1nc2c(-c3nnc[nH]3)cc(-c3cc(N)nc(N)n3)cc2n1-c1ccnc2c(Cl)cccc12 [Example 57, 6-[3-(8-chloroquinolin-4-yl)-2-methyl-7-(4H-1,2,4-triazol-3-yl)benzimidazol-5-yl]pyrimidine-2,4-diamine]
  IC50: 0.29 µM

## Cc1nc2c(-c3nnc[nH]3)cc(-c3ccnc(N)c3)cc2n1-c1ccnc2c(Cl)cccc12 [Example 58, 4-(1-(8-chloroquinolin-4-yl)-2-methyl-4-(4H-1,2,4-triazol-3-yl)-1H-benzo[d]imidazol-6-yl)pyridin-2-amine]
  IC50: 0.01 µM

## Cc1nc2c(-c3nnc[nH]3)cc(-c3cc(N)ncn3)cc2n1-c1ccnc2c(Cl)cccc12 [Example 59, 6-[3-(8-chloroquinolin-4-yl)-2-methyl-7-(4H-1,2,4-triazol-3-yl)benzimidazol-5-yl]pyrimidin-4-amine]
  IC50: 0.27 µM

## Nc1cc(-c2cc(-c3nnc[nH]3)c3nc(C4CC4)n(-c4ccnc5c(F)cccc45)c3c2)ccn1 [Example 60, 4-[2-cyclopropyl-3-(8-fluoroquinolin-4-yl)-7-(4H-1,2,4-triazol-3-yl)benzimidazol-5-yl]pyridin-2-amine]
  IC50: 0.42 µM

## Cc1nc2c(-c3nnc[nH]3)cc(-c3ccnc(N)c3)cc2n1-c1ccnc2c(F)cccc12 [Example 61, 4-[3-(8-fluoroquinolin-4-yl)-2-methyl-7-(4H-1,2,4-triazol-3-yl)benzimidazol-5-yl]pyridin-2-amine]
  IC50: 0.035 µM

## Nc1cc(-c2cc(-c3nnc[nH]3)c3nc(C4CC4)n(-c4ccnc5c(Cl)ccc(F)c45)c3c2)ccn1 [Example 62, 4-[3-(8-chloro-5-fluoroquinolin-4-yl)-2-cyclopropyl-7-(4H-1,2,4-triazol-3-yl)benzimidazol-5-yl]pyridin-2-amine]
  IC50: 0.008 µM
